“Also recorded” adds a separate entry of the source.
Tests used:
[1] = molecular target: T1, mGlu1 V405H/D322C/D324H (HCH) mutant (Rattus norvegicus, UniProt P23385, D322C/D324H/V405H); experiment: Fluorescent Ca2+ imaging in transfected HEK293 cells, HCH mutant; format: cell-based; conditions: for activation of HCH mutant (Δratio): secondary screening, 3 μM metal ion or complex
T1 construct: expressed in transfected cells; host or cells: HEK293

mGlu1(N264H) mutant [2] = molecular target: T2, mGlu1(N264H) mutant (Rattus norvegicus, UniProt P23385, N264H); design: method as in Ojima et al., 2021; conditions: previously reported; ref Ojima et al., 2021; cited from earlier work
T2 construct: expressed in transfected cells; host or cells: HEK293

WT mGlu1 = molecular target: T3, WT mGlu1 (Rattus norvegicus, UniProt P23385); experiment: Fluorescent Ca2+ imaging (Fura-2) in transfected HEK293 cells, WT mGlu1; format: cell-based; conditions: at the concentration of the mutant's EC50 (1.5 µM Cu^2+; 0.44 µM Zn^2+)
T3 construct: expressed in transfected cells; host or cells: HEK293

[3] = molecular target: T4, mGlu1 Q73H/D324H/E325C mutant (Rattus norvegicus, UniProt P23385, D324H/E325C/Q73H); experiment: Fluorescent Ca2+ imaging in transfected HEK293 cells, Q73H/D324H/E325C mutant; format: cell-based; conditions: for activation of Q73H/D324H/E325C mutant (Δratio): primary screening, 3 μM metal ion or complex
T4 construct: expressed in transfected cells; host or cells: HEK293

mGlu1 E325C mutant = molecular target: T5, mGlu1 E325C mutant (Rattus norvegicus, UniProt P23385, E325C); experiment: Fluorescent Ca2+ imaging in transfected HEK293 cells, E325C mutant; format: cell-based; conditions: for activation / metal selectivity of E325C mutant (Δratio): heat map: 3 μM metal ion or complex
T5 construct: expressed in transfected cells; host or cells: HEK293

mGlu1(N264H) mutant [4] = molecular target: T2, mGlu1(N264H) mutant; experiment: Fluorescent Ca2+ imaging in transfected HEK293 cells, N264H mutant; format: cell-based; conditions: for activation of N264H mutant (Δratio): heat map: 3 μM metal ion or complex
[5] = molecular target: T6, mGlu1 V405C/D322H/D324H (CHH) mutant (Rattus norvegicus, UniProt P23385, D322H/D324H/V405C); experiment: Fluorescent Ca2+ imaging in transfected HEK293 cells, CHH mutant; format: cell-based; conditions: secondary screening, 3 μM metal ion or complex
T6 construct: expressed in transfected cells; host or cells: HEK293

mGlu1 Q73H/D324H mutant = molecular target: T7, mGlu1 Q73H/D324H mutant (Rattus norvegicus, UniProt P23385, D324H/Q73H); experiment: Fluorescent Ca2+ imaging in transfected HEK293 cells, Q73H/D324H mutant; format: cell-based; conditions: 1 μM CuCl2
T7 construct: expressed in transfected cells; host or cells: HEK293

mGlu1 Q73H/E325C mutant = molecular target: T8, mGlu1 Q73H/E325C mutant (Rattus norvegicus, UniProt P23385, E325C/Q73H); experiment: Fluorescent Ca2+ imaging in transfected HEK293 cells, Q73H/E325C mutant; format: cell-based; conditions: 1 μM CuCl2
T8 construct: expressed in transfected cells; host or cells: HEK293

mGlu1 D324H/E325C mutant = molecular target: T9, mGlu1 D324H/E325C mutant (Rattus norvegicus, UniProt P23385, D324H/E325C); experiment: Fluorescent Ca2+ imaging in transfected HEK293 cells, D324H/E325C mutant; format: cell-based; conditions: 1 μM CuCl2
T9 construct: expressed in transfected cells; host or cells: HEK293

mGlu1 H55F/E325C mutant = molecular target: T10, mGlu1 H55F/E325C mutant (Rattus norvegicus, UniProt P23385, E325C/H55F); experiment: Fluorescent Ca2+ imaging in transfected HEK293 cells, H55F/E325C mutant; format: cell-based; conditions: 1 μM CuCl2, compared with E325C
T10 construct: expressed in transfected cells; host or cells: HEK293

mGlu1 E72A/E325C mutant = molecular target: T11, mGlu1 E72A/E325C mutant (Rattus norvegicus, UniProt P23385, E325C/E72A); experiment: Fluorescent Ca2+ imaging in transfected HEK293 cells, E72A/E325C mutant; format: cell-based; conditions: 1 μM CuCl2, compared with E325C
T11 construct: expressed in transfected cells; host or cells: HEK293

mGlu1 Q73A/E325C mutant = molecular target: T12, mGlu1 Q73A/E325C mutant (Rattus norvegicus, UniProt P23385, E325C/Q73A); experiment: Fluorescent Ca2+ imaging in transfected HEK293 cells, Q73A/E325C mutant; format: cell-based; conditions: 1 μM CuCl2, compared with E325C
T12 construct: expressed in transfected cells; host or cells: HEK293

[6] = molecular target: T13, mGlu1 V405H/D322H/D324C (HHC) mutant (Rattus norvegicus, UniProt P23385, D322H/D324C/V405H); experiment: Fluorescent Ca2+ imaging in transfected HEK293 cells, HHC mutant; format: cell-based; conditions: primary screening, 3 μM metal ion or complex
T13 construct: expressed in transfected cells; host or cells: HEK293

mGlu1 V405H/D322C mutant = molecular target: T14, mGlu1 V405H/D322C mutant (Rattus norvegicus, UniProt P23385, D322C/V405H); experiment: Fluorescent Ca2+ imaging in transfected HEK293 cells, V405H/D322C mutant; format: cell-based; conditions: compared with HCH mutant
T14 construct: expressed in transfected cells; host or cells: HEK293

mGlu1 V405H/D324H mutant = molecular target: T15, mGlu1 V405H/D324H mutant (Rattus norvegicus, UniProt P23385, D324H/V405H); experiment: Fluorescent Ca2+ imaging in transfected HEK293 cells, V405H/D324H mutant; format: cell-based; conditions: compared with HCH mutant
T15 construct: expressed in transfected cells; host or cells: HEK293

mGlu1 D322C/D324H mutant = molecular target: T16, mGlu1 D322C/D324H mutant (Rattus norvegicus, UniProt P23385, D322C/D324H); experiment: Fluorescent Ca2+ imaging in transfected HEK293 cells, D322C/D324H mutant; format: cell-based; conditions: compared with HCH mutant
T16 construct: expressed in transfected cells; host or cells: HEK293

[7] = molecular target: T17, mGlu1 H55/P58H/N264C mutant (Rattus norvegicus, UniProt P23385, N264C/P58H); experiment: Fluorescent Ca2+ imaging in transfected HEK293 cells, H55/P58H/N264C mutant; format: cell-based; conditions: primary screening, 3 μM metal ion or complex
T17 construct: expressed in transfected cells; host or cells: HEK293
T17 sequence (P23385 19-1199 P58H/N264C): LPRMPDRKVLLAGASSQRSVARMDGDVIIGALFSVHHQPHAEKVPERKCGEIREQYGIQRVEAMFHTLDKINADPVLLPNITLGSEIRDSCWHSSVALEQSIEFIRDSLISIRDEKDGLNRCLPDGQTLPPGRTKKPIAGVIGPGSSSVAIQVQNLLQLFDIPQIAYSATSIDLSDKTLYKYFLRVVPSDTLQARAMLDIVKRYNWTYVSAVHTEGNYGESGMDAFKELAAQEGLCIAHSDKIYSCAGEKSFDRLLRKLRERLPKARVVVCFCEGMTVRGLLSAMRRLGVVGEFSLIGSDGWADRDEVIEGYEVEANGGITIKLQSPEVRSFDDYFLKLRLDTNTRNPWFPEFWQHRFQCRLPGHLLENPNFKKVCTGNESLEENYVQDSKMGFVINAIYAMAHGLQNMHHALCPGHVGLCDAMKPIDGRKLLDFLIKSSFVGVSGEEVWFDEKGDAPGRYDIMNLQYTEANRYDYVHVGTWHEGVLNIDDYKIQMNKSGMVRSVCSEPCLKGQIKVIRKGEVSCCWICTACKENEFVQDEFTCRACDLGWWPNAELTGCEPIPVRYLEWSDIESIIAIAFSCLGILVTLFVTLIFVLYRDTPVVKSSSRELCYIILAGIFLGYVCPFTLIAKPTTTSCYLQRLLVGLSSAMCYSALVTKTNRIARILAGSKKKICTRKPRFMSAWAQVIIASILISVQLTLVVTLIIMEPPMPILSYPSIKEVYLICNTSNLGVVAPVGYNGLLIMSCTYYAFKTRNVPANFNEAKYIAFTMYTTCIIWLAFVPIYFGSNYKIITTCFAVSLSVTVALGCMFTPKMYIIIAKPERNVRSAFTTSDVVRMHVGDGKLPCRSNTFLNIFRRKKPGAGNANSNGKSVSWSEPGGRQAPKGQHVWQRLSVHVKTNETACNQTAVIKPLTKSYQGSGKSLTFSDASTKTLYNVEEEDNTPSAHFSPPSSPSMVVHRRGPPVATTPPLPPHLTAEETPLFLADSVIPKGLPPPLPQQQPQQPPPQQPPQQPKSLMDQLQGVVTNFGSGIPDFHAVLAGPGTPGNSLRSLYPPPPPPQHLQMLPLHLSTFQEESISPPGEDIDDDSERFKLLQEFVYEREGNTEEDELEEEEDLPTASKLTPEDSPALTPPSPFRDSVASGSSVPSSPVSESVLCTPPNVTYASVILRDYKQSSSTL

T2 sequence (P23385 19-1199 N264H): as the sequence (P23385 19-1199 P58H/N264C) above, with H40P, C246H counted along it
T6 sequence (P23385 19-1199 D322H/D324H/V405C): as the sequence (P23385 19-1199 P58H/N264C) above, with H40P, C246N, D304H, D306H, V387C counted along it
T1 sequence (P23385 19-1199 D322C/D324H/V405H): as the sequence (P23385 19-1199 P58H/N264C) above, with H40P, C246N, D304C, D306H, V387H counted along it
T5 sequence (P23385 19-1199 E325C): as the sequence (P23385 19-1199 P58H/N264C) above, with H40P, C246N, E307C counted along it
T4 sequence (P23385 19-1199 Q73H/D324H/E325C): as the sequence (P23385 19-1199 P58H/N264C) above, with H40P, Q55H, C246N, D306H, E307C counted along it
T13 sequence (P23385 19-1199 D322H/D324C/V405H): as the sequence (P23385 19-1199 P58H/N264C) above, with H40P, C246N, D304H, D306C, V387H counted along it
T3 sequence (P23385 19-1199): as the sequence (P23385 19-1199 P58H/N264C) above, with H40P, C246N counted along it
T10 sequence (P23385 19-1199 H55F/E325C): as the sequence (P23385 19-1199 P58H/N264C) above, with H37F, H40P, C246N, E307C counted along it
T16 sequence (P23385 19-1199 D322C/D324H): as the sequence (P23385 19-1199 P58H/N264C) above, with H40P, C246N, D304C, D306H counted along it
T12 sequence (P23385 19-1199 Q73A/E325C): as the sequence (P23385 19-1199 P58H/N264C) above, with H40P, Q55A, C246N, E307C counted along it
T7 sequence (P23385 19-1199 Q73H/D324H): as the sequence (P23385 19-1199 P58H/N264C) above, with H40P, Q55H, C246N, D306H counted along it
T8 sequence (P23385 19-1199 Q73H/E325C): as the sequence (P23385 19-1199 P58H/N264C) above, with H40P, Q55H, C246N, E307C counted along it
T15 sequence (P23385 19-1199 D324H/V405H): as the sequence (P23385 19-1199 P58H/N264C) above, with H40P, C246N, D306H, V387H counted along it
T9 sequence (P23385 19-1199 D324H/E325C): as the sequence (P23385 19-1199 P58H/N264C) above, with H40P, C246N, D306H, E307C counted along it
T11 sequence (P23385 19-1199 E72A/E325C): as the sequence (P23385 19-1199 P58H/N264C) above, with H40P, E54A, C246N, E307C counted along it
T14 sequence (P23385 19-1199 D322C/V405H): as the sequence (P23385 19-1199 P58H/N264C) above, with H40P, C246N, D304C, V387H counted along it

| Compound | activation of HCH mutant (Δratio) [1] | activation of mGlu1(N264H) mutant (mGlu1(N264H) mutant [2]) | activation of WT mGlu1 in dose dependency (WT mGlu1) | activation of Q73H/D324H/E325C mutant (Δratio) [3] | activation / metal selectivity of E325C mutant (Δratio) (mGlu1 E325C mutant) | activation of N264H mutant (Δratio) (mGlu1(N264H) mutant [4]) | activation of CHH mutant (Δratio) [5] | activation of V405H/D322H/D324C (HHC) mutant (Δratio) [6] | other results |
| --- | --- | --- | --- | --- | --- | --- | --- | --- | --- |
| [Cd+2] [Cd^2+] | moderately | failed to activate |  |  |  |  |  |  |  |
| [Cu+2] [Cu^2+, CuCl2] | not activated at all; also recorded: insensitive | failed to activate | not activated | strongly activated | high selectivity | not activated | strongly activated |  | EC50 ([3]; HEK293 cells, Q73H/D324H/E325C mutant, dose dependency, read-out: EC50 of activation (Δratio, [Ca2+]i)): 1500 nM; Cu^2+-induced response (Δratio) of E325C single mutant (mGlu1 E325C mutant; 1 μM CuCl2): maintained; EC50 (mGlu1 E325C mutant; HEK293 cells, E325C mutant, dose dependency, read-out: EC50 of activation (Δratio, [Ca2+]i)): 220 nM; activation of E325C mutant by Cu^2+ in the co-presence of Pd (bpy) (mGlu1 E325C mutant; [CuCl2] = 1 μM, [Pd(bpy)] = 3 μM): impaired; cell-specific activation of E325C-expressing cells in mixed culture (mGlu1 E325C mutant; three HEK293 cell types on one coverslip, sequential perfusion 60 s, 1 μM CuCl2): selectively activated; Cu^2+-induced response (Δratio) of Q73H/D324H mutant (mGlu1 Q73H/D324H mutant): loss in sensitivity; Cu^2+-induced response (Δratio) of Q73H/E325C mutant (mGlu1 Q73H/E325C mutant): prominent Cu^2+-induced responses; Cu^2+-induced response (Δratio) of D324H/E325C mutant (mGlu1 D324H/E325C mutant): prominent Cu^2+-induced responses; Cu^2+-induced response (Δratio) of H55F/E325C mutant (mGlu1 H55F/E325C mutant): drastically decreased; Cu^2+-induced response (Δratio) of E72A/E325C mutant (mGlu1 E72A/E325C mutant): drastically decreased; sensitivity to Cu^2+ (Δratio) of Q73A/E325C mutant (mGlu1 Q73A/E325C mutant): slightly affected |
| [Ni+2] [Ni^2+] | moderately | failed to activate |  | moderate sensitivity |  |  | strongly activated | showed sensitivity; also recorded: activated |  |
| [Pd+2] [Pd^2+] |  | failed to activate |  |  |  |  | strongly activated |  |  |
| [Zn+2] [Zn^2+, ZnCl2] | activated strongly | failed to activate | not activated at all |  | not activated | not activated | strongly activated |  | EC50 ([1]; HEK293 cells, HCH mutant, dose dependency, read-out: EC50 of activation (Δratio, [Ca2+]i)): 440 nM; activation of HCH mutant by Zn^2+ in the co-presence of Cu^2+ ([1]; [ZnCl2] = 3 μM, [CuCl2] = 1 μM): impaired; cell-specific activation of HCH-expressing cells in mixed culture ([1]; three HEK293 cell types on one coverslip, sequential perfusion 60 s, 3 μM ZnCl2): selectively activated; Zn^2+-induced response (Δratio) of V405H/D322C mutant (mGlu1 V405H/D322C mutant): significantly impaired; Zn^2+-induced response (Δratio) of V405H/D324H mutant (mGlu1 V405H/D324H mutant): significantly impaired; Zn^2+-induced response (Δratio) of D322C/D324H mutant (mGlu1 D322C/D324H mutant): significantly impaired |
| Pd-2,2′-bipyridine [Pd (bpy)] | not activated at all; also recorded: insensitive | selective activation |  | not activated | not activated | selectively activated |  | activated | activation of N264H mutant by Pd(bpy) in the co-presence of Cu2+ or Zn2+ (mGlu1(N264H) mutant [4]; [Pd(bpy)] = 3 μM, [CuCl2] = 1 μM, [ZnCl2] = 3 μM): did not affect; cell-specific activation of N264H-expressing cells in mixed culture (mGlu1(N264H) mutant [4]; three HEK293 cell types on one coverslip, sequential perfusion 60 s, 3 μM Pd (bpy)): selectively activated; activation of H55/P58H/N264C mutant (Δratio) [7]: activated |
